Source: patent US9539270B2, “Methods for providing sialylated oligosaccharides” (priority 2011, dated 2017)

Biological target: T1, Trypanosoma cruzi trans-sialidase (TcTS) (Trypanosoma cruzi, UniProt Q26966)
T1 construct: 6xHis (N); made in house; host or cells: E. coli TOP10 or BL21(DE3)
Experiment: Affinity of TcTS for the sialic acid donor substrates (kinetic incubations with lactose as acceptor)
Type: biochemical
Conditions: TcTS 4.5 mU/ml; 0.1-10.0 mM 4MU-Neu5Ac as donor; 1 mM lactose as acceptor
Protocol: In kinetic experiments with partially purified TcTS, 4MU-Neu5Ac or industrially available κ-casein-derived glycomacropeptide (GMP) as donors and lactose as acceptor, the formation of 3′SL was quantitatively determined after 15 and 30 min of incubation, making use of high-pH anion-exchange chromatography with pulsed amperometric detection (HPAEC-PAD). For both donors, the optimal temperature for the transfer reaction, deduced from a series of temperatures ranging from 15-50° C., with increments of 5° C., turned out to be 25° C., which is similar to the optimal temperature reported in literature (Scudder et al., J. Biol. Chem. 268: 9886-9891, 1993).
The affinity of TcTS for the sialic acid donor substrates 4MU-Neu5Ac and GMP was tested by performing incubations (4.5 mU/ml) with an appropriate range of these substrates and a fixed concentration of lactose as acceptor.

T1 sequence (Q26966 entry or part of it): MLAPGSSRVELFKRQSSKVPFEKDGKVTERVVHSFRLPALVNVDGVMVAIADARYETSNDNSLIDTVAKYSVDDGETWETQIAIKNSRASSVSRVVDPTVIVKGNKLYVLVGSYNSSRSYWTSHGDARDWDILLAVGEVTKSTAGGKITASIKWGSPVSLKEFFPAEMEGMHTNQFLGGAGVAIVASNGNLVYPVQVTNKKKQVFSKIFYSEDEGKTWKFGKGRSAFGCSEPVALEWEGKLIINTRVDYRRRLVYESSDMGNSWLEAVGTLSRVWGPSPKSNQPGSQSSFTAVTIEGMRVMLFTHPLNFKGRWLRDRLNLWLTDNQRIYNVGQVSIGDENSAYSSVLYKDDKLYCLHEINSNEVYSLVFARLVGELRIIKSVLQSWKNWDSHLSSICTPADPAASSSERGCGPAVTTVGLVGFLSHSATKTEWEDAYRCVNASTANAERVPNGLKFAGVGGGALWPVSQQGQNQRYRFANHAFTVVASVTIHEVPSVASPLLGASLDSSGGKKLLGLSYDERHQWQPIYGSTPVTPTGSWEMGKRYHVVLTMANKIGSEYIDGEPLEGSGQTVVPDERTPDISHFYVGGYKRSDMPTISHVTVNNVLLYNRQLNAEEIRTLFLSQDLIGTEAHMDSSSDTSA

In the case of `CC(=O)N[C@H]1[C@H]([C@H](O)[C@H](O)CO)OC(Oc2ccc3c(C)cc(=O)oc3c2)(C(=O)O)C[C@@H]1O` (stereo partly drawn) [4MU-Neu5Ac, 2′-(4-methylumbelliferyl)-α-N-acetylneuraminic acid], the Km is reported as 1650 µM and the Vmax is reported as 1.5 U/mg.
